Drawing on BindingDB's records for doi:10.1021/jm5003759 (University of Copenhagen, 2014), this text covers Ki for 1 molecule.

What is called Ki is the dissociation constant of the complex between target and ligand, obtained from inhibition or displacement.

Structures are written as SMILES.

The target of this test is T1, 5-hydroxytryptamine receptor 2C (Homo sapiens, UniProt P28335).
T1 sequence (P28335 whole entry): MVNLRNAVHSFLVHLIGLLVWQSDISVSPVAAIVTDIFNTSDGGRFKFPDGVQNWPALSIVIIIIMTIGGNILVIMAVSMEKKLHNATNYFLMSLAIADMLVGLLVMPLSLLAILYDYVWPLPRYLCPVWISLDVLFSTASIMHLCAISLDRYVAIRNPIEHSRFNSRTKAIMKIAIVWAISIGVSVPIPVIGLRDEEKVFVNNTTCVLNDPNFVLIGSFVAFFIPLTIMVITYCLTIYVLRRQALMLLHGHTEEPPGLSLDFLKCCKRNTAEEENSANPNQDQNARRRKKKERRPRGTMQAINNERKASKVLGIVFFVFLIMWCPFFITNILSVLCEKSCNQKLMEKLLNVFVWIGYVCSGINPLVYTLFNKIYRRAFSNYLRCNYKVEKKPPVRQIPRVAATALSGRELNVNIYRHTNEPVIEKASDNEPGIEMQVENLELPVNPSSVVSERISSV
Description: Displacement of [3H]5-HT from human recombinant 5-HT2C receptor expressed in mouse 3T3 cells. A general note: Displacement assays read how much labelled ligand stays bound in the presence of the test substance.

`CNc1cc(NS(=O)(=O)c2ccc(N)cc2)cc(NC)n1` [Ro-63-0563]: the inhibitory constant (Ki) was found to be 2040 nM.
